Assay results taken from US11427549B2, “Pyrimidinyloxy benzo-fused compounds as herbicides” (FMC Corporation, priority 2017, dated 2022).

Legend:
Assay type in all cases: in vivo
[1] = tested on: pigweed (Amaranthus retroflexus); assay: Test A postemergence, pigweed; details: Amaranthus retroflexus, post-emergence, 240 h, 0 to 100 scale (0 no effect, 100 complete control), read-out: Plant response rating, Pigweed
[2] = tested on: foxtail, green (green foxtail, Setaria viridis); assay: Test A postemergence, foxtail, green; details: Setaria, post-emergence, 240 h, 0 to 100 scale (0 no effect, 100 complete control), read-out: Plant response rating, Foxtail, Green
Excerpt: Seeds of plant species selected from barnyardgrass (Echinochloa crus-galli), kochia (Kochia scoparia), ragweed (common ragweed, Ambrosia elatior), ryegrass, Italian (Italian ryegrass, Lolium multiflorum), foxtail, giant (giant foxtail, Setaria faberii), foxtail, green (green foxtail, Setaria viridis) and pigweed (Amaranthus retroflexus) were planted into a blend of loam soil and sand and treated preemergence with a directed soil spray using test chemicals formulated in a non-phytotoxic solvent mixture which included a surfactant.
At the same time, plants selected from these weed species and also wheat (Triticum aestivum), corn (Zea mays), blackgrass (Alopecurus myosuroides), and galium (catchweed bedstraw, Galium aparine) were planted in pots containing the same blend of loam soil and sand and treated with postemergence applications of test chemicals formulated in the same manner. Plants ranged in height from 2 to 10 cm and were in the one- to two-leaf stage for the postemergence treatment. Treated plants and untreated controls were maintained in a greenhouse for approximately 10 days, after which time all treated plants were compared to untreated controls and visually evaluated for injury. […] A dash (-) response means no test result.

[3] = tested on: barnyardgrass (Echinochloa crus-galli); assay: Test A postemergence, barnyardgrass; details: Echinochloa crus-galli, post-emergence, 240 h, 0 to 100 scale (0 no effect, 100 complete control), read-out: Plant response rating, Barnyardgrass
[4] = tested on: ryegrass, Italian (Italian ryegrass, Lolium multiflorum); assay: Test A postemergence, ryegrass, Italian; details: Lolium multiflorum, post-emergence, 240 h, 0 to 100 scale (0 no effect, 100 complete control), read-out: Plant response rating, Ryegrass, Italian
[5] = tested on: ragweed (common ragweed, Ambrosia elatior); assay: Test A postemergence, ragweed; details: Ambrosia artemisiifolia, post-emergence, 240 h, 0 to 100 scale (0 no effect, 100 complete control), read-out: Plant response rating, Ragweed
kochia (Kochia scoparia) [6] = assay: Test A postemergence, kochia; details: Bassia scoparia, post-emergence, 240 h, 0 to 100 scale (0 no effect, 100 complete control), read-out: Plant response rating, Kochia
[7] = tested on: galium (catchweed bedstraw, Galium aparine); assay: Test A postemergence, galium; details: Galium, post-emergence, 240 h, 0 to 100 scale (0 no effect, 100 complete control), read-out: Plant response rating, Galium
[8] = tested on: barnyardgrass (Echinochloa crus-galli); assay: Test A preemergence, barnyardgrass; details: Echinochloa crus-galli, pre-emergence, 240 h, 0 to 100 scale (0 no effect, 100 complete control), read-out: Plant response rating, Barnyardgrass
[9] = tested on: blackgrass (Alopecurus myosuroides); assay: Test A postemergence, blackgrass; details: Alopecurus myosuroides, post-emergence, 240 h, 0 to 100 scale (0 no effect, 100 complete control), read-out: Plant response rating, Blackgrass
kochia (Kochia scoparia) [10] = assay: Test A preemergence, kochia; details: Bassia scoparia, pre-emergence, 240 h, 0 to 100 scale (0 no effect, 100 complete control), read-out: Plant response rating, Kochia
[11] = tested on: ragweed (common ragweed, Ambrosia elatior); assay: Test A preemergence, ragweed; details: Ambrosia artemisiifolia, pre-emergence, 240 h, 0 to 100 scale (0 no effect, 100 complete control), read-out: Plant response rating, Ragweed
[12] = tested on: ryegrass, Italian (Italian ryegrass, Lolium multiflorum); assay: Test A preemergence, ryegrass, Italian; details: Lolium multiflorum, pre-emergence, 240 h, 0 to 100 scale (0 no effect, 100 complete control), read-out: Plant response rating, Ryegrass, Italian
corn (Zea mays) = assay: Test A postemergence, corn; details: Zea mays, post-emergence, 240 h, 0 to 100 scale (0 no effect, 100 complete control)
[13] = tested on: pigweed (Amaranthus retroflexus); assay: Test A preemergence, pigweed; details: Amaranthus retroflexus, pre-emergence, 240 h, 0 to 100 scale (0 no effect, 100 complete control), read-out: Plant response rating, Pigweed
[14] = tested on: wheat (Triticum aestivum); assay: Test A postemergence, wheat; details: Triticum aestivum, post-emergence, 240 h, 0 to 100 scale (0 no effect, 100 complete control), read-out: Plant response rating, Wheat

With `O=C1CC(CCC(F)(F)F)c2c(Oc3ncc(Cl)cn3)cccc21` (stereo not drawn) [Compound 11, 4-[(5-Chloro-2-pyrimidinyl)oxy]-2,3-dihydro-3-(3,3,3-trifluoropropyl)-1H-inden-1-one] the pest or weed control at 31 g/ha ([1]; 31 g ai/ha) was 40%, the pest or weed control at 125 g/ha ([1]; 125 g ai/ha) was 50% and the pest or weed control at 31 g/ha ([2]; 31 g ai/ha) was 0%. The pest or weed control at 125 g/ha ([2]; 125 g ai/ha) was 10%, the pest or weed control at 31 g/ha ([3]; 31 g ai/ha) was 20% and the pest or weed control at 125 g/ha ([3]; 125 g ai/ha) was 30%. For the same molecule, the pest or weed control at 31 g/ha ([4]; 31 g ai/ha) was 30%, the pest or weed control at 125 g/ha ([4]; 125 g ai/ha) was 40% and the pest or weed control at 31 g/ha ([5]; 31 g ai/ha) was 0%. The pest or weed control at 125 g/ha ([5]; 125 g ai/ha) was 10%, the pest or weed control at 31 g/ha (kochia (Kochia scoparia) [6]; 31 g ai/ha) was 20% and the pest or weed control at 125 g/ha (kochia (Kochia scoparia) [6]; 125 g ai/ha) was 50%. For the same molecule, the pest or weed control at 31 g/ha ([7]; 31 g ai/ha) was 10%, the pest or weed control at 125 g/ha ([7]; 125 g ai/ha) was 40% and the pest or weed control at 31 g/ha ([8]; 31 g ai/ha) was 0%. The pest or weed control at 125 g/ha ([8]; 125 g ai/ha) was 50%, the pest or weed control at 31 g/ha ([9]; 31 g ai/ha) was 0% and the pest or weed control at 125 g/ha ([9]; 125 g ai/ha) was 20%. It also gave a pest or weed control at 31 g/ha (kochia (Kochia scoparia) [10]; 31 g ai/ha) of 0%, a pest or weed control at 125 g/ha (kochia (Kochia scoparia) [10]; 125 g ai/ha) of 20% and a pest or weed control at 31 g/ha ([11]; 31 g ai/ha) of 0%. For the same molecule, the pest or weed control at 125 g/ha ([11]; 125 g ai/ha) was 0%, the pest or weed control at 31 g/ha ([12]; 31 g ai/ha) was 0% and the pest or weed control at 125 g/ha ([12]; 125 g ai/ha) was 20%. The Corn plant response rating (crop injury, 0 = no effect, 100 = complete kill) at 31 g/ha (corn (Zea mays); 31 g ai/ha) was 0%, the Corn plant response rating (crop injury, 0 = no effect, 100 = complete kill) at 125 g/ha (corn (Zea mays); 125 g ai/ha) was 10% and the pest or weed control at 31 g/ha ([13]; 31 g ai/ha) was 10%. The pest or weed control at 125 g/ha ([13]; 125 g ai/ha) was 100%, the plant injury at 31 g/ha ([14]; 31 g ai/ha) was 0% and the plant injury at 125 g/ha ([14]; 125 g ai/ha) was 10%.
